US6207671A, “Cycloalkano-pyridines” (Bayer Aktiengesellschaft, priority 1996, dated 2001)
One block for each compound: values may come before it.

Assays:
HDL cholesterol = assay: In vivo activity: oral action on lipoproteins and triglycerides in hamsters (HDL rise); parameters: species or system Syrian golden hamsters; conditions: dose 2 × 3 mg/kg, up to 24 hours
Experimental: In experiments to determine the oral action on lipoproteins and triglycerides, test substance dissolved in DMSO and 0.5% Tylose suspended by means of a stomach tube are administered orally to Syrian golden hamsters from in-house breeding. To determine the CETP activity, blood (about 250 μl) is taken by retro-orbital puncture before the start of the experiment. The test substances are then administered orally by means of a stomach tube. The control animals receive identical volumes of solvents without test substance. The feed is then withdrawn from the animals and blood is taken at various times--up to 24 hours after substance administration--by puncture of the retro-orbital venous plexus. Clotting is ended by incubation at 4° C. overnight, then centrifugation at 6000×g is carried out for 10 minutes. In the serum thus obtained, the content of cholesterol and triglycerides is determined with the aid of modified commercially available enzyme tests (cholesterol enzymatic 14366 Merck, triglycerides 14364 Merck). Serum is suitably diluted using physiological saline solution.
100 μl of serum dilution are mixed with 100 μl of […] in 96-hole plates and incubated at room temperature for 10 minutes. The optical density is then determined at a wavelength of 492 nm using an automatic plate-reading apparatus. The triglyceride or cholesterol concentration contained in the samples is determined with the aid of a standard curve measured in parallel.
The determination of the content of HDL cholesterol is carried out according to the manufacturer's instructions after precipitation of the ApoB-containing lipoproteins by means of a reagent mixture (Sigma 352-4 HDL cholesterol reagent).

[1] = target: T1, cholesterol ester transfer protein (CETP) (Homo sapiens, UniProt P11597); assay: CETP inhibition test: transfer of 3H-cholesterol ester from human HD lipoproteins to biotinylated LD lipoproteins (SPA); format: biochemical; conditions: human plasma CETP, 18 h, 37° C.
T1 construct: CETP is obtained from human plasma in partially purified form; from tissue; host or cells: human plasma
T1 sequence (P11597 18-493): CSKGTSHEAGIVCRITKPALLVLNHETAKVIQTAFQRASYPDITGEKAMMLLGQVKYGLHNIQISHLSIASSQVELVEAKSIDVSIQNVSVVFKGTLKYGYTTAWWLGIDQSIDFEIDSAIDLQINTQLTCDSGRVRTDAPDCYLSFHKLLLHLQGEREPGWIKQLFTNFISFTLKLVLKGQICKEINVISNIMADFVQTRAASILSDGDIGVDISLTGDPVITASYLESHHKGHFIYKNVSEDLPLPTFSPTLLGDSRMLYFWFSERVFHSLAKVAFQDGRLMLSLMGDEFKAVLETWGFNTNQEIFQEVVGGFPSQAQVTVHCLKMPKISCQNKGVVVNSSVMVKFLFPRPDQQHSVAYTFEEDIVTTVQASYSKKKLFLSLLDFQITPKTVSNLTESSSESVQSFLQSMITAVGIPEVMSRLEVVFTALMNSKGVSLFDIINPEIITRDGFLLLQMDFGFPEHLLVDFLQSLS
Experimental: CETP is obtained from human plasma in partially purified form by differential centrifugation and column chromatography and used for the test. To this end, human plasma is adjusted to a density of 1.21 g per ml using NaBr and centrifuged at 4° C. for 18 h at 50,000 rpm. The bottom fraction (d>1.21 g/ml) is applied to a Sephadex®phenyl-sepharose 4B (Pharmacia) column, washed with 0.15 M NaCl/0.001 M trisHCl pH 7.4 and then eluted with distilled water. The CETP-active fractions are pooled, dialysed against 50 mM Na acetate pH 4.5 and applied to a CM-Sepharose® (Pharmacia) column. The column is then eluted using a linear gradient (0-1 M NaCl). The pooled CETP fractions are dialysed against 10 mM trisHCl pH 7.4 and then further purified by chromatography on a Mono Q® column (Pharmacia).
50 ml of fresh human EDTA plasma are adjusted to a density of 1.12 using NaBr and centrifuged at 50,000 rpm for 18 h at 4° C. in a Ty 65 rotor. The upper phase is used to obtain cold LDL. The lower phase is dialysed against 3×4 l of PDB buffer (10 mM tris/HCl pH 7.4, […] NaCl, 1 mM EDTA, 0.02% NaN3). 20 μl of ^3 H-cholesterol (Dupont NET-725; 1 μC/μl dissolved in ethanol) are then added per 10 ml of retentate volume and the mixture is incubated under N2 at 37° C. for 72 h.
The mixture is then adjusted to the density 1.21 using NaBr and centrifuged at 20° C. for 18 h at 50,000 rpm in the Ty 65 rotor. The upper phase is recovered and the lipoprotein fractions are purified by gradient centrifugation. To this end, the isolated, labelled lipoprotein fraction is adjusted to a density of 1.26 using NaBr. Each 4 ml of this solution are covered with a layer of 4 ml of a solution of density 1.21 and 4.5 ml of a solution of 1.063 (density solutions from PDB buffer and NaBr) in centrifuge tubes (SW 40 rotor) and then centrifuged in the SW 40 rotor for 24 h at 38,000 rpm and 20° C. The intermediate layer lying between the densities 1.063 and 1.21 and containing the labelled HDL is dialysed at 4° C. against 3×100 volumes of PDB buffer.
The retentate contains radiolabelled ^3 H-CE-HDL which, adjusted to about 5×10^6 cmp per ml, is used for the test.
To test the CETP activity, the transfer of ^3 H-cholesterol ester from human HD lipoproteins to biotinylated LD lipoproteins is measured.
The reaction is ended by addition of streptavidin-SPA®beads (Amersham) and the transferred radioactivity is determined directly in a liquid scintillation counter.
In the test mixture, 10 μl of HDL-^3 H-cholesterol ester (~50,000 cpm) are incubated at 37° C. for 18 h with 10 μl of biotin-LDL (Amersham) in 50 mM Hepes/0.15 M NaCl/0.1% bovine serum albumin/0.05% NaN3 pH 7.4 with 10 μl of CETP (1 mg/ml) and 3 μl of solution of the substance to be tested (dissolved in 10% DMSO/1% RSA). 200 μl of the SPA-streptavidin bead solution (TRKQ 7005) are then added, the mixture is incubated further for 1 h with shaking and then measured in the scintillation counter. As controls, corresponding incubations with 10 μl of buffer, 10 μl of CETP at 4° C. and 10 μl of CETP at 37° C. are used.
The activity transferred into the control mixtures with CETP at 37° C. is rated as 100% transfer. The substance concentration at which this transfer is reduced by half is indicated as the IC50 value.

[2] = tested on: lipoproteins and triglycerides; assay: In vivo activity in transgenic hCETP mice (lipoproteins and triglycerides); conditions: 400 ppm in the feed, one week
Experimental: Transgenic mice from in-house breeding (Dinchuck, Hart, Gonzalez, Karmann, Schmidt, Wirak; BBA (1995), 1295, 301) were administered the substances to be tested in the feed. Before the start of the experiment, blood was taken retro-orbitally from the mice in order to determine cholesterol and triglycerides in the serum. The serum was obtained as described above for hamsters by incubation at 4° C. overnight and subsequent centrifugation at 6000×g. After one week, blood was again taken from the mice in order to determine lipoproteins and triglycerides. The change in the parameters measured is expressed as a percentage change compared with the starting value.

CETP = assay: Ex vivo activity: CETP activity in serum of treated hamsters (modified CETP test); parameters: species or system Syrian golden hamsters; conditions: for % Inhibition at 30 mg/kg: ex vivo CETP activity in hamster serum; for ED50 values for ex vivo activity: hamster serum, up to 24 hours after administration
Experimental: Syrian golden hamsters from in-house breeding are anaesthetized after fasting for 24 hours (0.8 mg/kg of atropine, 0.8 mg/kg of Ketavet® s.c., 30'later 50 mg/kg of Nembutal i.p.). The jugular vein is then exposed and cannulated. The test substance is dissolved in a suitable solvent (as a rule Adalat placebo solution: 60 g of glycerol, 100 ml of H2 O, PEG-400 to 1000 ml) and administered to the animals via a PE catheter inserted in the jugular vein. The control animals receive the same volume of solvent without test substance. The vein is then tied off and the wound is closed. The administration of the test substances can also be carried out p.o., by orally administering the substances dissolved in DMSO and suspended in 0.5% Tylose by means of a stomach tube. The control animals receive identical volumes of solvent without test substance.
After various times--up to 24 hours after administration--blood (about 250 μl) is taken from the animals by puncture of the retro-orbital venous plexus. Clotting is ended by incubation at 4° C. overnight, then centrifugation is carried out at 6000×g for 10 minutes. In the serum thus obtained, CETP activity is determined by the modified CETP test. As for the CETP test described above, the transfer of ^3 H-cholesterol ester from HD lipoproteins to biotinylated LD lipoproteins is measured.
The reaction is ended by addition of Streptavidin-SPA®beads (Amersham) and the transferred radioactivity is determined directly in the liquid scintillation counter.
The test mixture is carried out as described under "CETP test". For the testing of the serum, only 10 μl of CETP are replaced by 10 μl of the corresponding serum samples. As controls, corresponding incubations with sera of untreated animals are used.
The activity transferred in the control mixtures with control sera is rated as 100% transfer. The substance concentration at which this transfer is reduced to a half is indicated as the ED50 value.

IC50 [1]: 0.006 µM
SMILES: CC1Cc2nc(C3CCCC3)c(C(F)c3ccc(C(F)(F)F)cc3)c(-c3ccc(F)cc3)c2C(O)C1 (single isomer, unassigned) [Example 76]
% HDL rise (HDL cholesterol): +15.81%
HDL (percentage change compared with the starting value) [2]: +31.25%
LDL (percentage change compared with the starting value) [2]: -15.3%
Triglycerides (percentage change compared with the starting value) [2]: -11.7%

IC50 [1]: 0.06 µM
SMILES: CC(C)c1nc2c(c(-c3ccc(F)cc3)c1C(F)c1ccc(C(F)(F)F)cc1)C(O)CC(C)(C)C2 (single isomer, unassigned) [Example 90]

IC50 [1]: 0.8 µM
SMILES: CC(C)c1nc2c(c(-c3ccc(F)cc3)c1C(F)c1ccc(C(F)(F)F)cc1)C(O)CC1CC21 (single isomer, unassigned) [Example 237]
% HDL rise (HDL cholesterol): +21.03%

IC50 [1]: 0.06 µM
SMILES: CC1(C)Cc2nc(C3CCCC3)c(C(F)c3ccc4c(c3)OC(F)(F)O4)c(-c3ccc(F)cc3)c2C(O)C1 (single isomer, unassigned) [Example 244]

IC50 [1]: 0.03 µM
SMILES: CC(C)c1nc2c(c(-c3ccc(F)cc3)c1C(F)c1ccc(C(F)(F)F)cc1)C(O)CC1(CCCC1)C2 (single isomer, unassigned) [Example 291]

IC50 [1]: 0.0002 µM
SMILES: OC1CC2(CCCC2)Cc2nc(C3CCCC3)c(C(F)c3ccc(C(F)(F)F)cc3)c(-c3ccc(F)cc3)c21 (single isomer, unassigned) [Example 300]

IC50 [1]: 0.06 µM
SMILES: CC(C)c1nc2c(c(-c3ccc(F)cc3)c1C(F)c1ccc(C(F)(F)F)cc1)C(O)CC1(CC1)C2 (single isomer, unassigned) [Example 312]

IC50 [1]: 0.0002 µM
SMILES: CC(C)c1nc2c(c(-c3ccc(F)cc3)c1C(F)c1ccc(C(F)(F)F)cc1)C(O)CC1(CC1)C2 (single isomer, unassigned) [Example 313]

IC50 [1]: 0.05 µM
SMILES: OC1CC2(CC2)Cc2nc(C3CCCC3)c(C(F)c3ccc(C(F)(F)F)cc3)c(-c3ccc(F)cc3)c21 (single isomer, unassigned) [Example 319]

IC50 [1]: 0.75 µM
SMILES: CC1(C)Cc2nc(C3CCCC3)c(C(N=[N+]=[N-])c3ccc(C(F)(F)F)cc3)c(-c3ccc(F)cc3)c2C(O)C1 (centres unmarked) [Example 195]

IC50 [1]: 0.0015 µM
SMILES: OC1CC2(CCC2)Cc2nc(C3CCCC3)c(C(F)c3ccc(C(F)(F)F)cc3)c(-c3ccc(F)cc3)c21 (centres unmarked) [Example 329]

Further lines, the compound ahead of its results:

SMILES: CC1(C)Cc2nc(C3CCCC3)c(C(F)c3ccc(C(F)(F)F)cc3)c(-c3ccc(F)cc3)c2C(O)C1 (single isomer, unassigned) [Example 91]
% HDL rise (HDL cholesterol): +12.58%

SMILES: CC1(C)Cc2nc(C3CCCC3)c(C(F)c3ccc(Cl)c(C(F)(F)F)c3)c(-c3ccc(F)cc3)c2C(O)C1 (single isomer, unassigned) [Example 170]
% Inhibition at 30 mg/kg (CETP): 60.1%
ED50 values for ex vivo activity (CETP): < 30 mg/kg

SMILES: CC1Cc2nc(C3CCCC3)c(C(F)c3ccc(C(F)(F)F)cc3F)c(-c3ccc(F)cc3)c2C(O)C1 (single isomer, unassigned) [Example 181]
% Inhibition at 30 mg/kg (CETP): 46.4%
ED50 values for ex vivo activity (CETP): > 30 mg/kg

SMILES: CC1(C)Cc2nc(C3CCCC3)c(C(F)c3ccc4ccccc4c3)c(-c3ccc(F)cc3)c2C(O)C1 (single isomer, unassigned) [Example 184]
% Inhibition at 30 mg/kg (CETP): 53.5%
ED50 values for ex vivo activity (CETP): < 30 mg/kg

SMILES: OCC1Cc2nc(C3CCCC3)c(C(F)c3ccc(C(F)(F)F)cc3)c(-c3ccc(F)cc3)c2C(O)C1 (single isomer, unassigned) [Example 211]
% HDL rise (HDL cholesterol): +7.54%

SMILES: CC1Cc2nc(C(C)C)c(C(F)c3ccc(C(F)(F)F)cc3)c(-c3ccc(F)cc3)c2C(O)C1 (centres unmarked) [Example 115]
% Inhibition at 30 mg/kg (CETP): 61.9%
ED50 values for ex vivo activity (CETP): < 30 mg/kg

SMILES: CC1Cc2nc(C(C)C)c(C(F)c3ccc(C(F)(F)F)cc3)c(-c3ccc(F)cc3)c2C(O)C1 (centres unmarked) [Example 117]
% Inhibition at 30 mg/kg (CETP): 86.0%
ED50 values for ex vivo activity (CETP): < 30 mg/kg

SMILES: OC1CC(C2CC2)Cc2nc(C3CCCC3)c(C(F)c3ccc(C(F)(F)F)cc3)c(-c3ccc(F)cc3)c21 (centres unmarked) [Example 209]
% HDL rise (HDL cholesterol): +25.94%
